According to PubChem BioAssay AID1963835 (Molecular Pharmacology Branch, DTP, NCI, 2024):

Tested on: 699152-130-R-J1-PDC complex spheroid viability
Test: Anticancer human tumor 699152-130-R-J1-PDC patient-derived pancreatic carcinoma cell line growth inhibition [POLQ]
Conditions: for IC50: curve of first compound; for viability, T/C: stronger effect = lower value
Summary of the method: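 Complex spheroid viability model combining PDC tumour cells with endothelial (HUVEC) and MSC stromal cells. Novobiocin, ART-558 or RP6685 were tested singly and in combination with standard and investigational anticancer drugs. Each was titrated in half-log steps from near clinical Cmax, or from 10 microM where Cmax was unknown.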

[1] = second compound 0.0316 µM, first compound 0.0316 µM
[2] = second compound 0.0316 µM, first compound 0.1 µM
[3] = second compound 0.0316 µM, first compound 0.316 µM
[4] = second compound 0.0316 µM, first compound 1 µM
[5] = second compound 0.0316 µM, first compound 3.16 µM
[6] = second compound 0.0316 µM, first compound 10 µM
[7] = second compound 0.1 µM, first compound 0.0316 µM
[8] = second compound 0.1 µM, first compound 0.1 µM
[9] = second compound 0.1 µM, first compound 0.316 µM
[10] = second compound 0.1 µM, first compound 1 µM
[11] = second compound 0.1 µM, first compound 3.16 µM
[12] = second compound 0.1 µM, first compound 10 µM
[13] = second compound 0.316 µM, first compound 0.0316 µM
[14] = second compound 0.316 µM, first compound 0.1 µM
[15] = second compound 0.316 µM, first compound 0.316 µM
[16] = second compound 0.316 µM, first compound 1 µM
[17] = second compound 0.316 µM, first compound 3.16 µM
[18] = second compound 0.316 µM, first compound 10 µM
[19] = second compound 1 µM, first compound 0.0316 µM
[20] = second compound 1 µM, first compound 0.1 µM
[21] = second compound 1 µM, first compound 0.316 µM
[22] = second compound 1 µM, first compound 1 µM
[23] = second compound 1 µM, first compound 3.16 µM
[24] = second compound 1 µM, first compound 10 µM
[25] = second compound 3.16 µM, first compound 0.0316 µM
[26] = second compound 3.16 µM, first compound 0.1 µM
[27] = second compound 3.16 µM, first compound 0.316 µM
[28] = second compound 3.16 µM, first compound 1 µM
[29] = second compound 3.16 µM, first compound 3.16 µM
[30] = second compound 3.16 µM, first compound 10 µM
[31] = second compound 10 µM, first compound 0.0316 µM
[32] = second compound 10 µM, first compound 0.1 µM
[33] = second compound 10 µM, first compound 0.316 µM
[34] = second compound 10 µM, first compound 1 µM
[35] = second compound 10 µM, first compound 3.16 µM
[36] = second compound 10 µM, first compound 10 µM
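Also: spheroids exposed to agents for 7 days before viability reading.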
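For viability, T/C in this document: percent of DMSO vehicle control viability so 100% = vehicle and 0% = no viable signal.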

COc1cc(C2c3cc4c(cc3C(OC3OC5COC(C)OC5C(O)C3O)C3COC(=O)C23)OCO4)cc(OC)c1O (stereo unspecified) + COC1C(OC(N)=O)C(O)C(Oc2ccc3c(O)c(NC(=O)c4ccc(O)c(CC=C(C)C)c4)c(=O)oc3c2C)OC1(C)C
IC50 (second compound 0.0316 µM): 4.01 µM | IC50 (second compound 0.1 µM): 3.17 µM | IC50 (second compound 0.316 µM): 4.05 µM | IC50 (second compound 1 µM): 2.51 µM | IC50 (second compound 3.16 µM): 4.61 µM | IC50 (second compound 10 µM): 3.04 µM | viability, T/C [1]: 92.1% | viability, T/C [2]: 99.5% | viability, T/C [3]: 66.4% | viability, T/C [4]: 72.5% | viability, T/C [5]: 51.3% | viability, T/C [6]: 40.2% | viability, T/C [7]: 83.9% | viability, T/C [8]: 94% | viability, T/C [9]: 71.1% | viability, T/C [10]: 61.1% | viability, T/C [11]: 54.3% | viability, T/C [12]: 38.2% | viability, T/C [13]: 99.5% | viability, T/C [14]: 80.4% | viability, T/C [15]: 74.4% | viability, T/C [16]: 70.8% | viability, T/C [17]: 46.8% | viability, T/C [18]: 42.7% | viability, T/C [19]: 94.5% | viability, T/C [20]: 87.8% | viability, T/C [21]: 75% | viability, T/C [22]: 60.4% | viability, T/C [23]: 47.7% | viability, T/C [24]: 38.4% | viability, T/C [25]: 93% | viability, T/C [26]: 86.2% | viability, T/C [27]: 75.3% | viability, T/C [28]: 66.7% | viability, T/C [29]: 49.7% | viability, T/C [30]: 46% | viability, T/C [31]: 87.3% | viability, T/C [32]: 85.6% | viability, T/C [33]: 78.5% | viability, T/C [34]: 62.6% | viability, T/C [35]: 50.8% | viability, T/C [36]: 40.6%

O=C(c1cc(Cc2n[nH]c(=O)c3ccccc23)ccc1F)N1CCN(C(=O)C2CC2)CC1 + Nc1ccc(C#CCN(C(=O)Cc2ncc(C(F)(F)F)cc2C(F)(F)F)c2ccc(F)cc2)nn1
IC50 (second compound 0.0316 µM): > 10 µM | IC50 (second compound 0.1 µM): > 10 µM | IC50 (second compound 0.316 µM): > 10 µM | IC50 (second compound 1 µM): > 10 µM | IC50 (second compound 3.16 µM): > 10 µM | IC50 (second compound 10 µM): > 10 µM | viability, T/C [1]: 88.9% | viability, T/C [2]: 99.8% | viability, T/C [3]: 81.6% | viability, T/C [4]: 109% | viability, T/C [5]: 85.3% | viability, T/C [6]: 93.2% | viability, T/C [7]: 95% | viability, T/C [8]: 110% | viability, T/C [9]: 97.8% | viability, T/C [10]: 95.4% | viability, T/C [11]: 99.6% | viability, T/C [12]: 82.3% | viability, T/C [13]: 100% | viability, T/C [14]: 114% | viability, T/C [15]: 101% | viability, T/C [16]: 92.8% | viability, T/C [17]: 96.3% | viability, T/C [18]: 85.3% | viability, T/C [19]: 105% | viability, T/C [20]: 99.2% | viability, T/C [21]: 98.5% | viability, T/C [22]: 112% | viability, T/C [23]: 86.7% | viability, T/C [24]: 77.5% | viability, T/C [25]: 108% | viability, T/C [26]: 113% | viability, T/C [27]: 114% | viability, T/C [28]: 98.6% | viability, T/C [29]: 88% | viability, T/C [30]: 81.8% | viability, T/C [31]: 103% | viability, T/C [32]: 107% | viability, T/C [33]: 108% | viability, T/C [34]: 107% | viability, T/C [35]: 113% | viability, T/C [36]: 97.8%

C#Cc1c(F)ccc2cc(O)cc(-c3ncc4c(N5CC6CCC(C5)N6)nc(OCC56CCCN5CC(F)C6)nc4c3F)c12 (stereo unspecified) + Nc1ccc(C#CCN(C(=O)Cc2ncc(C(F)(F)F)cc2C(F)(F)F)c2ccc(F)cc2)nn1
IC50 (second compound 0.0316 µM): < 0.0316 µM | IC50 (second compound 0.1 µM): < 0.0316 µM | IC50 (second compound 0.316 µM): < 0.0316 µM | IC50 (second compound 1 µM): < 0.0316 µM | IC50 (second compound 3.16 µM): < 0.0316 µM | IC50 (second compound 10 µM): < 0.0316 µM | viability, T/C [1]: 26% | viability, T/C [2]: 18.8% | viability, T/C [3]: 14.6% | viability, T/C [4]: 12.1% | viability, T/C [5]: 14.2% | viability, T/C [6]: 11.9% | viability, T/C [7]: 25.1% | viability, T/C [8]: 21.8% | viability, T/C [9]: 15.4% | viability, T/C [10]: 13.7% | viability, T/C [11]: 13.3% | viability, T/C [12]: 13.2% | viability, T/C [13]: 24% | viability, T/C [14]: 16.3% | viability, T/C [15]: 18.9% | viability, T/C [16]: 12.3% | viability, T/C [17]: 12.4% | viability, T/C [18]: 12.1% | viability, T/C [19]: 18.8% | viability, T/C [20]: 18.8% | viability, T/C [21]: 13.5% | viability, T/C [22]: 12.8% | viability, T/C [23]: 12.8% | viability, T/C [24]: 12.4% | viability, T/C [25]: 21.6% | viability, T/C [26]: 16.9% | viability, T/C [27]: 13% | viability, T/C [28]: 13.3% | viability, T/C [29]: 11.8% | viability, T/C [30]: 14.2% | viability, T/C [31]: 32.2% | viability, T/C [32]: 18.8% | viability, T/C [33]: 14.3% | viability, T/C [34]: 14.6% | viability, T/C [35]: 13.5% | viability, T/C [36]: 11.5%
